The target in experiment [1] is T1, TACE (catalytic domain of the recombinant TACE protein) (Homo sapiens, UniProt P78536).
T1 construct: The catalytic domain of the recombinant TACE protein was expressed and purified; made in house
Description: TACE FRET assay using TACE Cat. It is filed as biochemical. To be noted: FRET, pro-TNF-α substrate peptide; read-out: TACE IC50. In a few lines: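 Recombinant TACE catalytic domain (1 ug/ml) pre-incubated 10 min at room temperature with inhibitor in 50 mM Tris-HCl pH 7.4, 25 mM NaCl, 4% glycerol, 0.005% Brij 35; Abz/Dpa pro-TNF-α peptide substrate added, fluorescence (Ex 320/Em 420) followed 10 min; IC50 from initial rates by Hill fit.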

The target of experiment [2] is T2, recombinant human catalytic domain of MMP-1 (Homo sapiens, UniProt P03956).
T2 construct: The source of enzyme in the assay was the recombinant human catalytic domain of MMP-1
T2 sequence (P03956 100-269 limits assumed): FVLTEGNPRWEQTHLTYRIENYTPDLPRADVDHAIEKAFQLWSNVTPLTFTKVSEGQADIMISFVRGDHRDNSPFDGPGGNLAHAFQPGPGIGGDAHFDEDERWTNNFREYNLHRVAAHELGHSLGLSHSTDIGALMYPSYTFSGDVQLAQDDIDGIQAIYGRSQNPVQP
The experiment can be described thus: In-vitro fluorescence assay of MMP-1 activity. Type of experiment: biochemical.
Description: (§1) A continuous assay was used in which the substrate is a synthetic peptide containing a fluorescent group (7-methoxycoumarin; Mca) that is quenched by energy transfer to a 2,4-dinitrophenyl group. […] The substrate used was Mca-PQGL-(3-[2,4-dinitrophenyl]-L-2,3-diaminopropionyl)-AR-OH (denoted as Wammp-5, custom synthesized by AnaSpec, Inc.). The assay buffer consisted of 50 mM Hepes (pH 7.4), 100 mM NaCl, 5 mM CaCI2, and 0.005% Brij-35. Each well of black polystyrene 96-well plates contained a 200 μL reaction mixture consisting of assay buffer, purified MMP (final concentration of 25 ng/ml, prepared by diluting with the assay buffer), and varied concentrations of inhibitor (prepared by serially diluting a given inhibitor in DMSO in 96-well polypropylene plate). […] The enzymatic reactions were initiated by adding the substrate to a final concentration of 20 μM, and mixing 10 times with a pipette. The final DMSO concentration in the assay was 6.0%.
(§2) Plots of the inhibitor concentration vs. the percent inhibition were fit to the following equation: y=(a−d)/[1+(x/c)^b]+d, a general sigmoidal curve with Hill slope, a to d. x is the inhibitor concentration under test. y is the percent inhibition. a is the limiting response as x approaches zero. As x increases without bound, y tends toward its limit d. c is the inflection point (IC50) for the curve. That is, y is halfway between the lower and upper asymptotes when x=c. b is the slope factor or Hill coefficient.

The next experiment concerns the target T3, recombinant human MMP-2 (Homo sapiens, UniProt P08253).
T3 sequence (P08253 110-660): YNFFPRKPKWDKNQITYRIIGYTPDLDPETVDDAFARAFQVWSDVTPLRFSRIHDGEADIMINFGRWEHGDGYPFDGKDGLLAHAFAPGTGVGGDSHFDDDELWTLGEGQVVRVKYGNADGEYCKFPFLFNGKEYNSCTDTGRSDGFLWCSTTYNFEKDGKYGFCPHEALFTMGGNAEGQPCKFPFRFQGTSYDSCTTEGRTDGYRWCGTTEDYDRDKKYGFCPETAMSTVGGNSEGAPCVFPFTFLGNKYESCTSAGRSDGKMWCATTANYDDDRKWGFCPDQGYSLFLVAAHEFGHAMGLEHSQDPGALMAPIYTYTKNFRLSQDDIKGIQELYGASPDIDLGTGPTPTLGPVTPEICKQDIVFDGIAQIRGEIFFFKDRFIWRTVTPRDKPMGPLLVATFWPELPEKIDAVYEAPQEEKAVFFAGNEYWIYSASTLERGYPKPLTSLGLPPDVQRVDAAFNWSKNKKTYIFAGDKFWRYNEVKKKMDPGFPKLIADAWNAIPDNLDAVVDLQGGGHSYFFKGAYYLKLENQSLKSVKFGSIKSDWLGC
The experiment can be described thus: In-vitro fluorescence assay of MMP-2 activity. Type of experiment: biochemical.

The next experiment deals with MMP-13 (Homo sapiens, UniProt P45452). Description: In-vitro fluorescence assay of MMP-13 activity. Type of experiment: biochemical. As for the experimental part: See Knight, C. […] […].
The method was essentially the same as for the determination of MMP-1 activity, described above, except that the final concentration of purified MMP in the assay was 0.5 nM, prepared by diluting with the assay buffer.

The test system of experiment [3] is TNF-α secretion in Raw 264.7 cells. Description: Cell-based assay for inhibition of TNF-α secretion in Raw cells. As to conditions: Mus musculus, RAW264.7, LPS 100 ng/ml, 4 hr. The method in brief:
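Confluent Raw 264.7 cells were seeded overnight, refed, and pre-incubated 1 hr with compound (0.2% final DMSO), then stimulated with LPS at 100 ng/ml final for 4 hr at 37° C. Supernatant TNF-α measured by ELISA; % inhibition and IC50 by curve fitting.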

The subject of experiment [4] is LPS-induced TNF-α secretion in human whole blood. Description: Human whole blood assay for LPS-induced TNF-α secretion. Type of experiment: cell-based. As to conditions: LPS 100 ng/ml, read-out: TNF Secretion HWB IC50. In a few lines:
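Fresh blood from healthy volunteers pre-incubated 1 h at 37° C with compound (final DMSO <0.2%), then stimulated with 100 ng/ml LPS for 4 h or overnight at 37° C with rotation. Supernatant TNF-α measured by ELISA; percent inhibition and IC50 derived by curve fitting.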

The target in experiment [5] is T4, recombinant human catalytic domain of MMP-14 (Homo sapiens, UniProt P50281).
T4 construct: 20 kDa; purchased Chemicon International, Inc. CC1041
The experiment can be described thus: In-vitro fluorescence assay of MMP-14 activity. It is filed as biochemical. As for the experimental part: The results were analyzed as described for MMP-13 activity, above.

Where two headings read alike, the source gives them in different places.

Data on 14 compounds can be found in US7595327B2, “Beta-sulfonamide hydroxamic acid inhibitors of tace/matrix metalloproteinase” (priority 2005, dated 2009).

T1 sequence (P78536 223-474 limits assumed): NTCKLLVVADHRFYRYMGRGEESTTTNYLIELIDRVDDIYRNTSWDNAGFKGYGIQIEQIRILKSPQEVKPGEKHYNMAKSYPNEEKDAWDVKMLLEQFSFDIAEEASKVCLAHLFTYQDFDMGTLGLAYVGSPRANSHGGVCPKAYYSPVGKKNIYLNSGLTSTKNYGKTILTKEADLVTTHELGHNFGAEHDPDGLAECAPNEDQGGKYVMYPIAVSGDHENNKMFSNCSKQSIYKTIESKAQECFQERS
Description for recombinant human MMP-2: as §1, §2

With `Cc1cc(COc2ccc(S(=O)(=O)N[C@@H]3CN(C=O)CCC3C(=O)NO)cc2)c2ccccc2n1` (mixture of isomers) [Example 34, 1-Formyl-3-[4-(2-methyl-quinolin-4-ylmethoxy)-benzenesulfonylamino]-piperidine-4-carboxylic acid hydroxyamide], the IC50 in experiment [1] was 1 nM; in experiment [2], over 16700 nM; on recombinant human MMP-2 it was over 16700 nM; against MMP-13, over 16700 nM; in experiment [3], 21 nM; in experiment [4] (Homo sapiens), 500 nM.
For the compound `CC(=O)N1CCC(C(=O)NO)C(NS(=O)(=O)c2ccc(OCc3cc(C)nc4ccccc34)cc2)C1` (mixture of isomers) [Example 36, 1-Acetyl-3-[4-(2-methyl-quinolin-4-ylmethoxy)-benzenesulfonylamino]-piperidine-4-carboxylic acid hydroxyamide], the half-maximal inhibitory concentration (IC50) is 1.3 nM in experiment [1]; over 16700 nM in experiment [2]; over 16700 nM at recombinant human MMP-2; over 16700 nM on MMP-13; 202 nM in experiment [3]; 1000 nM in experiment [4] (Homo sapiens).
In the case of `Cc1cc(COc2ccc(S(=O)(=O)N(C)[C@@H]3[C@H]4CC[C@H](C4)[C@@H]3C(=O)NO)cc2)c2ccccc2n1` (racemic) [Example 1, exo-N-Hydroxy-3-[methyl({4-[(2-methylquinolin-4-yl)methoxy]phenyl}sulfonyl)amino]bicyclo[2.2.1]heptane-2-carboxamide], the IC50 is 2 nM in experiment [1]; 6180 nM at recombinant human MMP-2; over 16700 nM in experiment [5]; 18 nM in experiment [3]; 3000 nM in experiment [4] (Homo sapiens).
For `Cc1cc(COc2ccc(S(=O)(=O)N(C)[C@H]3[C@@H](C(=O)NO)[C@@H]4CC[C@H]3O4)cc2)c2ccccc2n1` (relative stereo) [Example 3, exo-N-Hydroxy-3-[methyl({4-[(2-methylquinolin-4-yl)methoxy]phenyl}sulfonyl)amino]-7-oxabicyclo[2.2.1]heptane-2-carboxamide], the IC50 in experiment [1] is 1.1 nM; in experiment [2], over 16700 nM; on recombinant human MMP-2 it was 4120 nM; on MMP-13, 3310 nM; in experiment [5], over 16700 nM; in experiment [3], 10 nM. Moreover, the IC50 in experiment [4] (Homo sapiens) was 2200 nM.
As for `Cc1cc(COc2ccc(S(=O)(=O)N(C)C3C4CCC(C4)C3C(=O)NO)cc2)c2ccccc2n1` (single isomer, unassigned) [Example 1a, exo-N-hydroxy-3-[methyl({4-[(2-methylquinolin-4-yl)methoxy]phenyl}sulfonyl)amino]bicyclo[2.2.1]heptane-2-carboxamide], the IC50 was 1.3 nM in experiment [1]; over 16700 nM in experiment [2]; 4580 nM on recombinant human MMP-2; over 16700 nM on MMP-13; over 16700 nM in experiment [5]; 2800 nM in experiment [4].
With `CNC(=O)N1CC[C@@H](NS(=O)(=O)c2ccc(OCc3cc(C)nc4ccccc34)cc2)[C@@](C)(C(=O)NO)C1` [Example 50], the IC50 in experiment [1] was 3.7 nM; at recombinant human MMP-2, over 16700 nM; at MMP-13, over 16700 nM; in experiment [3], over 1000 nM; in experiment [4] (Homo sapiens), 22000 nM.
In the case of `Cc1cc(COc2ccc(S(=O)(=O)N[C@@H]3CCN(C=O)C[C@]3(C)C(=O)NO)cc2)c2ccccc2n1` [Example 51, (3S,4R)-1-formyl-N-hydroxy-3-methyl-4-[({4-[(2-methylquinolin-4-yl)methoxy]phenyl}sulfonyl)amino]piperidine-3-carboxamide], the IC50 in experiment [1] was under 0.6 nM; on recombinant human MMP-2, over 16700 nM; at MMP-13 it was over 10000 nM; in experiment [3], over 1000 nM; in experiment [4] (Homo sapiens) it was 30000 nM.
On the same counts, the results for `Cc1cc(COc2ccc(S(=O)(=O)N[C@@H]3CCN(S(=O)(=O)C(C)C)C[C@]3(C)C(=O)NO)cc2)c2ccccc2n1` [Example 52, (3S,4R)-N-hydroxy-1-(isopropylsulfonyl)-3-methyl-4-[({4-[(2-methylquinolin-4-yl)methoxy]phenyl}sulfonyl)amino]piperidine-3-carboxamide] are 2.4 nM, over 16700 nM, over 10000 nM, 762 nM and 37000 nM.
On the same counts, the results for `Cc1cc(COc2ccc(S(=O)(=O)N[C@@H]3CCC[C@]3(O)C(=O)NO)cc2)c2ccccc2n1` [Example 53, (1R,2R)-N,1-dihydroxy-2-[({4-[(2-methylquinolin-4-yl)methoxy]phenyl}sulfonyl)amino]cyclopentanecarboxamide] are 0.4 nM, over 16700 nM, over 16700 nM, 82 nM and 3600 nM.
With `Cc1cc(COc2ccc(S(=O)(=O)N[C@@H]3CCC[C@]3(F)C(=O)NO)cc2)c2ccccc2n1` [Example 54, (1R,2R)-1-fluoro-N-hydroxy-2-[((4-[(2-methylquinolin-4-yl)methoxy]phenyl}sulfonyl)amino]cyclopentanecarboxamide], the IC50 in experiment [1] was under 0.6 nM; at recombinant human MMP-2 it was over 16700 nM; against MMP-13, over 10000 nM; in experiment [3] it was 19 nM; in experiment [4] (Homo sapiens) it was 2300 nM.
On the same counts, the results for `Cc1cc(COc2ccc(S(=O)(=O)N[C@@H]3CCC[C@]3(C)C(=O)NO)cc2)c2ccccc2n1` [Example 55, (1S,2R)-N-hydroxy-1-methyl-2-[({4-[(2-methylquinolin4-yl)methoxy]phenyl}sulfonyl)amino]cyclopentanecarboxamide] are under 0.6 nM, over 16700 nM, over 16700 nM, 270 nM and 5900 nM.
On the same counts, the results for `CC[C@]1(C(=O)NO)CCC[C@H]1NS(=O)(=O)c1ccc(OCc2cc(C)nc3ccccc23)cc1` [Example 56, (1S,2R)-N-hydroxy-1-ethyl-2-[({4-[(2-methylquinolin-4-yl)methoxy]phenyl}sulfonyl)amino]cyclopentanecarboxamide] are 2.3 nM, over 10000 nM, over 10000 nM, over 1000 nM and 48000 nM.
On the same counts, the results for `CC[C@]1(C(=O)NO)CCC[C@H]1N(C)S(=O)(=O)c1ccc(OCc2cc(C)nc3ccccc23)cc1` [Example 57, (1S,2R)-N-hydroxy-1-ethyl-2-[methyl({4-[(2-methylquinolin-4-yl)methoxy]phenyl}sulfonyl)amino]cyclopentanecarboxamide] are 9.6 nM, over 10000 nM, over 10000 nM, over 1000 nM and over 50000 nM.
Regarding `Cc1cc(COc2ccc(S(=O)(=O)N[C@@H]3CCNC[C@]3(O)C(=O)NO)cc2)c2ccccc2n1` [Example 59, (3R,4R)-N,3-dihydroxy-4-[({4-[(2-methylquinolin-4-yl)methoxy]phenyl}sulfonyl)amino]piperidine-3-carboxamide], the IC50 in experiment [1] is 109 nM; at recombinant human MMP-2, over 10000 nM; against MMP-13 it was over 10000 nM; in experiment [3] it was over 1000 nM; in experiment [4] (Homo sapiens), 49000 nM.
